According to paper PMC6274715, “Discovery of Novel Druggable Sites on Zika Virus NS3 Helicase Using X-ray Crystallography-Based Fragment Screening” (International Journal of Molecular Sciences, 2018):

Molecular target: T1, ZIKV NS3-Hel (Zika virus NS3 helicase) (Zika virus ZIKV/H. sapiens/FrenchPolynesia/10087PF/2013, UniProt A0A024B7W1)
T1 construct: helicase domain, residues 171-617 of NS3, cut from the genome polyprotein; N-terminal 6xHis-SUMO tag cleaved off
Assay: STD NMR titration; crystal structure also solved
Type: binding

T1 sequence (A0A024B7W1 1673-2119): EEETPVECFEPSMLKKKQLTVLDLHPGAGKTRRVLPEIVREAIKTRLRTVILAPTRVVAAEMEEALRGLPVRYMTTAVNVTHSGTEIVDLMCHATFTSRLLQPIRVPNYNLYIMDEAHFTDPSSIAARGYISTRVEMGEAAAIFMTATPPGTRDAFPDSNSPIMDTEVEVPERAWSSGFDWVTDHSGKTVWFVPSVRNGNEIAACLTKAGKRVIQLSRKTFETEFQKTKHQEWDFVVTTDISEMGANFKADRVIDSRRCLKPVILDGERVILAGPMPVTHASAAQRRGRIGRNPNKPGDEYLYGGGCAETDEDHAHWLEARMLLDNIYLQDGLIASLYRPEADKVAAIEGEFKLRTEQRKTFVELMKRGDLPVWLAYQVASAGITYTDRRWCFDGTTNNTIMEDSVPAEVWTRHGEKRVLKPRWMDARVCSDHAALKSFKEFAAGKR

Nc1nc(N)c2[nH]cnc2n1 [compound 1, 2,6-di-aminopurine]
Kd: 2.8 ± 0.4 mM

NC(=O)c1ccc(Cl)cc1Cl [compound 4, 2,4-dicholorobenzamide]
Kd: 5.1 ± 1.4 mM
